# Values of other authors as cited in patent US5668134A, “Method for preventing or reducing photosensitivity and/or phototoxicity reactions to medications” (priority 1994, dated 1997).
# System: skin
# Conditions: Table 1; cited from earlier work
SMILES,Action Spectrum,Type of Photoreaction
CCCCNC(=O)NS(=O)(=O)c1ccc(C)cc1 [tolbutamide],290-360 nm,–
CNC1=Nc2ccc(Cl)cc2C(c2ccccc2)=[N+]([O-])C1 [Chlordiazepoxide],290-360 nm,Photoallergic
CCn1cc(C(=O)O)c(=O)c2ccc(C)nc21 [nalidixic acid],320-400 nm,–
CN(Cc1cnc2nc(N)nc(N)c2n1)c1ccc(C(=O)N[C@@H](CCC(=O)O)C(=O)O)cc1 [methotrexate],–,Phototoxic
C=C[C@H]1C[N@@]2CC[C@H]1C[C@@H]2[C@@H](O)c1ccnc2ccc(OC)cc12 [Quinidine],–,Photoallergic
"O=c1[nH]cc(F)c(=O)[nH]1 [fluorouracil, 5-fluoro-2,4 (1H,3H)-pyrimidinedione]",–,Phototoxic
CC[C@]1(O)C[C@@H]2CN(CCc3c([nH]c4ccccc34)[C@@](C(=O)OC)(c3cc4c(cc3OC)N(C)[C@H]3[C@@](O)(C(=O)OC)[C@H](OC(C)=O)[C@]5(CC)C=CCN6CC[C@]43[C@@H]65)C2)C1 [vinblastine],–,Phototoxic
CN(C)N=Nc1[nH]cnc1C(N)=O [DTIC],–,Phototoxic
C=C[C@H]1C[N@@]2CC[C@H]1C[C@H]2[C@H](O)c1ccnc2ccc(OC)cc12 [quinine],–,Photoallergic

# Same assay, conditions: cited from earlier work
row,SMILES,Action Spectrum
1,COC1=CC(=O)C[C@@H](C)[C@]12Oc1c(Cl)c(OC)cc(OC)c1C2=O [griseofulvin],320-400 nm
2,CCCNC(=O)NS(=O)(=O)c1ccc(Cl)cc1 [chlorpropamide],290-360 nm
3,C=C[C@H]1C[N@@]2CC[C@H]1C[C@@H]2[C@@H](O)c1ccnc2ccc(OC)cc12 [Quinidine],320-400 nm
4,C=C[C@H]1C[N@@]2CC[C@H]1C[C@H]2[C@H](O)c1ccnc2ccc(OC)cc12 [quinine],320-400 nm
